# Activity calls are given as the source filed them.
# Assays:
# [1] = biological target: T1, Polyadenylate-binding protein 1 (Homo sapiens, UniProt P11940); assay: MLLE domain peptide-binding blockers, IC50 – biochemical, fluorescence polarization, FITC-PAM2 peptide, dose response (AID 602259); assay type: functional; conditions: read-out: IC50_Mean
# [2] = Luminescence Cell-Based Dose Confirmation HTS to Identify Inhibitors of Platelet Dense Granule Release. [Related pubchem assays: 1663 (Primary HTS), 1678 (Summary of Project)]; assay type: functional
# [3] = biological target: T2, Zinc finger protein mex-5 (Caenorhabditis elegans, UniProt Q9XUB2); assay: potency of MEX-5 RNA-binding blockers – biochemical, C. elegans, fluorescence polarization, dose response (AID 1960)
# T2 sequence (Q9XUB2 whole entry): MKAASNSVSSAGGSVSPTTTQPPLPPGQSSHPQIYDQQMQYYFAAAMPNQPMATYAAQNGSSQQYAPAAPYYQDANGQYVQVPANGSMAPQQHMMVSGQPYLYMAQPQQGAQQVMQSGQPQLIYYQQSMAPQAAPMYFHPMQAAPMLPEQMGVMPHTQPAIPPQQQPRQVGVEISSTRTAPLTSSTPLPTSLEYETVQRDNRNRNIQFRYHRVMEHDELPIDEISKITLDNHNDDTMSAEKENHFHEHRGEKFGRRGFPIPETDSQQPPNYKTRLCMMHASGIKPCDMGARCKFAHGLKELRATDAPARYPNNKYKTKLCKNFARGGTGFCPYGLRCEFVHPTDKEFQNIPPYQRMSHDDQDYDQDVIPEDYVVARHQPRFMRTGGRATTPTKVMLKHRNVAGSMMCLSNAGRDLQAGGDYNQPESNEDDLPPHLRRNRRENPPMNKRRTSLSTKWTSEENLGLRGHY
# [4] = biological target: Luciferin 4-monooxygenase (Photinus pyralis, UniProt P08659); assay: inhibition of purified Photinus pyralis luciferase – biochemical, luminescence, dose response (AID 1891)
# Sequence of Luciferin 4-monooxygenase (P08659 whole entry): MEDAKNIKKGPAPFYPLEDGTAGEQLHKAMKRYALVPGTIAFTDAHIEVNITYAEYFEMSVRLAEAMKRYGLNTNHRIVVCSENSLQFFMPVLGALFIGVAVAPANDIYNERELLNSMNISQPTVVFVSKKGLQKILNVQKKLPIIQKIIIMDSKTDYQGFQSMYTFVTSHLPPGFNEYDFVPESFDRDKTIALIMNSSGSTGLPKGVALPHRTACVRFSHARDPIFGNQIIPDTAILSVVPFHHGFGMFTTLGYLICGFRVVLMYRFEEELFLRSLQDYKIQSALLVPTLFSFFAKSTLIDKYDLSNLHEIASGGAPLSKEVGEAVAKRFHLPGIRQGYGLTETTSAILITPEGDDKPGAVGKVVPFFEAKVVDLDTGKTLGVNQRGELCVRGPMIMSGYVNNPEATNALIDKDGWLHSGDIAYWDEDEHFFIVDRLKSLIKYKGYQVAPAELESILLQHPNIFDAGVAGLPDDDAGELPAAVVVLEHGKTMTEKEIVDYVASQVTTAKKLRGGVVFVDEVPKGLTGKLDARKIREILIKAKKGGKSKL
# [5] = biological target: T1, Polyadenylate-binding protein 1; assay: MLLE binding blockers, Cy5 peptide tracer – biochemical, fluorescence polarization, Cy5-PAM2 peptide, secondary, miRNA deadenylation inhibitor project, dose response (AID 602260); assay type: functional; conditions: read-out: IC50_Mean
# [6] = biological target: T3, RNA-binding protein pos-1 (Caenorhabditis elegans, UniProt G5EF15); assay: disruptors of C. elegans POS-1 RNA interaction – biochemical, fluorescence polarization, dose response (AID 1964);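 note: purified POS-1 fused to maltose binding protein made in E. coli; potency of compounds blocking POS-1 binding to fluorescent RNA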
# T3 sequence (G5EF15 whole entry): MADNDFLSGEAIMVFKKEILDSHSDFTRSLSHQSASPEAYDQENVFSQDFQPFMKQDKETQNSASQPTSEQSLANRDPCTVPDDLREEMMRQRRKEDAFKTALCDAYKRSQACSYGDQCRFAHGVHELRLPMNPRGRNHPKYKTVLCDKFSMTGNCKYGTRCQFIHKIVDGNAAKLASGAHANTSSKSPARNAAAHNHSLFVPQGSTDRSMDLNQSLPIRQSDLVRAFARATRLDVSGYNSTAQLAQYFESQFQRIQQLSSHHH
# [7] = biological target: T4, Carboxy-terminal domain RNA polymerase II polypeptide A small phosphatase 1 (Homo sapiens, UniProt Q9GZU7); assay: CTDSP1 inhibitors, concentration-response, biochemical, absorbance readout, ultra-high-throughput screen actives (AID 540297); assay type: functional
# T4 sequence (Q9GZU7 whole entry): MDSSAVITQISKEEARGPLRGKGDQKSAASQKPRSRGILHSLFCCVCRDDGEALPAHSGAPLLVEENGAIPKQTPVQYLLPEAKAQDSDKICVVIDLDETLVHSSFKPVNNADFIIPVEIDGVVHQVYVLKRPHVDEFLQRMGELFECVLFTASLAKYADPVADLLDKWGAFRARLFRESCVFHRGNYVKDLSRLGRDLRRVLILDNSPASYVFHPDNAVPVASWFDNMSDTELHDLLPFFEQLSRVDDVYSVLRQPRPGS
# [8] = biological target: T5, DNA repair protein RAD52 homolog (Homo sapiens, UniProt P43351); assay type: functional, biochemical
# T5 sequence (P43351 whole entry): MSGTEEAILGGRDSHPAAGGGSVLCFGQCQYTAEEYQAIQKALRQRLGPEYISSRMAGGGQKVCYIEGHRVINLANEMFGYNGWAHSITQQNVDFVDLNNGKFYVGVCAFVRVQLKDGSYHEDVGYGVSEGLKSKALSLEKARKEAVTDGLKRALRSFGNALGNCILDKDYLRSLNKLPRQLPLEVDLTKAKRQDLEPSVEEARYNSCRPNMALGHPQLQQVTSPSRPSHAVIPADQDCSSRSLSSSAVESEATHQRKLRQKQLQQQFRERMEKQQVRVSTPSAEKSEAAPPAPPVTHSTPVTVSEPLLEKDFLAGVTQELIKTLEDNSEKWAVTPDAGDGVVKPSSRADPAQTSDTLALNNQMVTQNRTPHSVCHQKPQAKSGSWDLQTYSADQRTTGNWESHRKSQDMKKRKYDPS
# Large T antigen = Large T antigen (Simian virus 40, UniProt P03070); assay type: functional, Betapolyomavirus macacae;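 note: Confirmatory-stage PubChem screen for compounds that inhibit SV40 T antigen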
# Sequence of Large T antigen (P03070 whole entry): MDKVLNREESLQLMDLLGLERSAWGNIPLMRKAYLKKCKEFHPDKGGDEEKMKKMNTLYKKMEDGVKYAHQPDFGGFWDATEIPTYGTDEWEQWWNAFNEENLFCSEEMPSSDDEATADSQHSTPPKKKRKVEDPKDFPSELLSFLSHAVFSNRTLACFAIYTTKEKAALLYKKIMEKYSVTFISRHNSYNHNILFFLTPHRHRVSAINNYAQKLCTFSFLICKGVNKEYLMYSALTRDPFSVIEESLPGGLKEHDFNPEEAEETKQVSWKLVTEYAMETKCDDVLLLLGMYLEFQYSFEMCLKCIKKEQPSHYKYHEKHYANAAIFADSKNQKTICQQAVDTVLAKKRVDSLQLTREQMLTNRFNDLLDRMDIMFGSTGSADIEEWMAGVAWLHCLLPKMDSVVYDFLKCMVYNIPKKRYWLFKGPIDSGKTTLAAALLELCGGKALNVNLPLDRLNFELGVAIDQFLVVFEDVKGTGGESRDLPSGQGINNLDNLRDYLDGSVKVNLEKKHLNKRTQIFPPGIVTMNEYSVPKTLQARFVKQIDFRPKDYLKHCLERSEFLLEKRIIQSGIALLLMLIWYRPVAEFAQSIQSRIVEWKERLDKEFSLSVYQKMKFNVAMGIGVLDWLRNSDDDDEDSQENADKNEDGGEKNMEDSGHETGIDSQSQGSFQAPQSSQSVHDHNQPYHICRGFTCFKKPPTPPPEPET
# Leucine aminopeptidase = biological target: T6, Leucine aminopeptidase (Plasmodium falciparum 3D7, UniProt Q8IL11); assay: P. falciparum M17LAP inhibitors, primary screen, biochemical, fluorogenic H-Leu-NHMec substrate, 1536-well (AID 1619); assay type: functional
# T6 sequence (Q8IL11 whole entry): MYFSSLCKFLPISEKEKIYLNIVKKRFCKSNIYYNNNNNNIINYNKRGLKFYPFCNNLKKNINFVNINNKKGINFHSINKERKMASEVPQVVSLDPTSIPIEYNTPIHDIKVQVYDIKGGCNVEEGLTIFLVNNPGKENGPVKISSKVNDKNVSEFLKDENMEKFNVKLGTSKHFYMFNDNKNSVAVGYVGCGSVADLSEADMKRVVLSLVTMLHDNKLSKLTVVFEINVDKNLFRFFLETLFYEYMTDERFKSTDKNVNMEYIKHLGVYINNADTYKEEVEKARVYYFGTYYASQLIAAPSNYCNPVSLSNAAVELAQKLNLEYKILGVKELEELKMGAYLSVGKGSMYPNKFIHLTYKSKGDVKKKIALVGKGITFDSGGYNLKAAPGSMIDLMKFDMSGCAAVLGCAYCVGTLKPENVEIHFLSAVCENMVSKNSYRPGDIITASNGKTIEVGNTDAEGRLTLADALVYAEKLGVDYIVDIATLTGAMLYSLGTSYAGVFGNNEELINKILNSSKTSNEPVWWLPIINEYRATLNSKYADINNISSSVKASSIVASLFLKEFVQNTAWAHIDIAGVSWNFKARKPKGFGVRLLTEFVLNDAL
# Genome polyprotein = Genome polyprotein (dengue virus type 2, UniProt P29990); assay: flavivirus cap methylation enzyme inhibition – biochemical, confirmation dose response, primary screen (AID 588689); assay type: functional
# Sequence of Genome polyprotein (P29990 2492-3391 limits assumed): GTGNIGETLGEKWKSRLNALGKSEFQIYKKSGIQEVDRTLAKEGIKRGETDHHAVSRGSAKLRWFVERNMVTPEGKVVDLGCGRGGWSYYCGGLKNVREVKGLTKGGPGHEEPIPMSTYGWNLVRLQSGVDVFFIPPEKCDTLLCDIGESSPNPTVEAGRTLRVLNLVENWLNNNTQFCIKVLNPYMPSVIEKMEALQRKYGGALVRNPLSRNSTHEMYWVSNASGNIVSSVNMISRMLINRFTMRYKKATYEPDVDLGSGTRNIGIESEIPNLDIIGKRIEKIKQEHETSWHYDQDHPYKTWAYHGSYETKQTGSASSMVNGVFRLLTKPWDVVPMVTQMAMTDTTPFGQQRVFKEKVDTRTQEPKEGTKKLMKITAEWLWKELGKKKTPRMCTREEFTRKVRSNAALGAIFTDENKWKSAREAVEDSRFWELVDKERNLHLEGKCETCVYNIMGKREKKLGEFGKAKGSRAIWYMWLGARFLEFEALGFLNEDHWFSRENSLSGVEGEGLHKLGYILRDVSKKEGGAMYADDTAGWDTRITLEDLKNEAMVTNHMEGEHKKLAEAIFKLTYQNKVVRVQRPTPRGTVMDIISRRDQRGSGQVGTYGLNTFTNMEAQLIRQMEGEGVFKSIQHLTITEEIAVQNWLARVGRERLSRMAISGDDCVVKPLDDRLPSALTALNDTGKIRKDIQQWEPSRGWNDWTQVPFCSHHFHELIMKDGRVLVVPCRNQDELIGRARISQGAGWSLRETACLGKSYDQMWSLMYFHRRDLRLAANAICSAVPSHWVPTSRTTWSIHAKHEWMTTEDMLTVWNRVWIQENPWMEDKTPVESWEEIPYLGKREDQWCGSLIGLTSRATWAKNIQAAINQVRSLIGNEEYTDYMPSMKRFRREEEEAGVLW
# [9] = biological target: T7, Replicative DNA helicase DnaB (Mycobacterium tuberculosis, UniProt P9WMR3); assay: DnaB intein splicing inhibitors, dose response, biochemical, cell-free fluorescence (AID 449749); assay type: functional
# T7 sequence (P9WMR3 whole entry): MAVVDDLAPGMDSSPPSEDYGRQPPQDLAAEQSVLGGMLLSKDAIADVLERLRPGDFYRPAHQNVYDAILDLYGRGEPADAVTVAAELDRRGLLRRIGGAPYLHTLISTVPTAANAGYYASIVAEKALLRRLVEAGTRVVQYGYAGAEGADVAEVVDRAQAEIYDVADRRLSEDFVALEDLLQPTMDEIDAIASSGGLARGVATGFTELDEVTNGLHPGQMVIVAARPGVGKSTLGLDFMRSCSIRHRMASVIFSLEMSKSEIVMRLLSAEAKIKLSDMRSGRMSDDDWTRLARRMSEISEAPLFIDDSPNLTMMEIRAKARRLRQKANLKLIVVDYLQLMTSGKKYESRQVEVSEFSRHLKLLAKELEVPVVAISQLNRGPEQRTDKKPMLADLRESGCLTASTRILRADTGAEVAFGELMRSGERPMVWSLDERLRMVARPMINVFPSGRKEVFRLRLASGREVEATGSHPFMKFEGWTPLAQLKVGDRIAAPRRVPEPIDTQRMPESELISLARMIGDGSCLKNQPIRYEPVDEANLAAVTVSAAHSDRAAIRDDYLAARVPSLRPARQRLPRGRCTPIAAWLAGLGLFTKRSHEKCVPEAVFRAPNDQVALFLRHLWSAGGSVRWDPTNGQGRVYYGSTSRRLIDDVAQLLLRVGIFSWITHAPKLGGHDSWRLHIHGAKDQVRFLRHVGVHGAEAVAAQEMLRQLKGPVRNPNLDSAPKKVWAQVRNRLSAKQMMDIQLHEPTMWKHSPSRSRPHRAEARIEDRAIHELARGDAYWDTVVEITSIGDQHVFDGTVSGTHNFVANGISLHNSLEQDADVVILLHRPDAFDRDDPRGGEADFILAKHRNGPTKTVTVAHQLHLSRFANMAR
# Protein RecA = biological target: T8, Protein RecA (Mycobacterium tuberculosis, UniProt P9WHJ3); assay: Fluorescence Cell-Free Homogeneous Dose Retest to Identify Inhibitors of RecA-Intein Splicing Activity. [Related pubchem assays (depositor defined):AID2097, AID2223, AID489010, AID492950]; assay type: functional
# T8 sequence (P9WHJ3 whole entry): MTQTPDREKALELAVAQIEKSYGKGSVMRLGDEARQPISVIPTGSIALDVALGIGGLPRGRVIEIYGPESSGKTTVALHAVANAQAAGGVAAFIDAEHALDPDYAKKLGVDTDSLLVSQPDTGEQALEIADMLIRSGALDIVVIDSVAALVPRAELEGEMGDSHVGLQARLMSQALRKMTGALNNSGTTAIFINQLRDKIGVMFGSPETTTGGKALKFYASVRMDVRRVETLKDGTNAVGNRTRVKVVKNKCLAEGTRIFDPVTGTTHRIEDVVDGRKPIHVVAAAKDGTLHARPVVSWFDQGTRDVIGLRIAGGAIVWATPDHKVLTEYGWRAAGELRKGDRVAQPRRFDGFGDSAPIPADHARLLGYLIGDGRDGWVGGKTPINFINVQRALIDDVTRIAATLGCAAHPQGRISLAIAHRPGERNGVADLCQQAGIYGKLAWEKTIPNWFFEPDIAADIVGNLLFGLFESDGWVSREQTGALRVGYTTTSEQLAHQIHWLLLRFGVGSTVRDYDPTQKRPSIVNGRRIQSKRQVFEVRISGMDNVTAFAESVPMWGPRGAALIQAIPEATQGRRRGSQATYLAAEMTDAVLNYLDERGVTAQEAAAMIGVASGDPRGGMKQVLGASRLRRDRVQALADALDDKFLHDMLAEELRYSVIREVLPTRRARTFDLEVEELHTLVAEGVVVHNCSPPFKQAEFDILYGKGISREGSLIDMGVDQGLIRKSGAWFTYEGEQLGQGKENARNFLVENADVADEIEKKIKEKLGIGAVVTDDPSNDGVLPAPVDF
# [10] = biological target: T9, Ubiquitin-conjugating enzyme E2 N (Homo sapiens, UniProt P61088); assay type: functional;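 note: Dose-response confirmation in a TR-FRET assay detecting UBC13-driven polyubiquitin chain formation, inhibition measured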
# T9 sequence (P61088 whole entry): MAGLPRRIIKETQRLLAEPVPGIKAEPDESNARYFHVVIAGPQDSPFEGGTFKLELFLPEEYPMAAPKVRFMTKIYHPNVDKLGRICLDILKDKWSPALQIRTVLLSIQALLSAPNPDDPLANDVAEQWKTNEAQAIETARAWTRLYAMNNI
# [11] = biological target: Induced myeloid leukemia cell differentiation protein Mcl-1 (Homo sapiens, UniProt Q07820); assay type: functional
# Sequence of Induced myeloid leukemia cell differentiation protein Mcl-1 (Q07820 whole entry): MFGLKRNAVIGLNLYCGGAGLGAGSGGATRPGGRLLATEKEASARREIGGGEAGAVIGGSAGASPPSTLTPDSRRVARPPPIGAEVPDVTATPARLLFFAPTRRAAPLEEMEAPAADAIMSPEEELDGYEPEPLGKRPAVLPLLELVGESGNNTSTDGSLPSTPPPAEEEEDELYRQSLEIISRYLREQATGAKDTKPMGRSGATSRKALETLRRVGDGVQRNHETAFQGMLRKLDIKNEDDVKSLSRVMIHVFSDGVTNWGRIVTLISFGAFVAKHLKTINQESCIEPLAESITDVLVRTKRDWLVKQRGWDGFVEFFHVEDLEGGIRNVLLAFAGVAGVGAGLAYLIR
# T1 sequence (P11940 whole entry, the tested form may be a part): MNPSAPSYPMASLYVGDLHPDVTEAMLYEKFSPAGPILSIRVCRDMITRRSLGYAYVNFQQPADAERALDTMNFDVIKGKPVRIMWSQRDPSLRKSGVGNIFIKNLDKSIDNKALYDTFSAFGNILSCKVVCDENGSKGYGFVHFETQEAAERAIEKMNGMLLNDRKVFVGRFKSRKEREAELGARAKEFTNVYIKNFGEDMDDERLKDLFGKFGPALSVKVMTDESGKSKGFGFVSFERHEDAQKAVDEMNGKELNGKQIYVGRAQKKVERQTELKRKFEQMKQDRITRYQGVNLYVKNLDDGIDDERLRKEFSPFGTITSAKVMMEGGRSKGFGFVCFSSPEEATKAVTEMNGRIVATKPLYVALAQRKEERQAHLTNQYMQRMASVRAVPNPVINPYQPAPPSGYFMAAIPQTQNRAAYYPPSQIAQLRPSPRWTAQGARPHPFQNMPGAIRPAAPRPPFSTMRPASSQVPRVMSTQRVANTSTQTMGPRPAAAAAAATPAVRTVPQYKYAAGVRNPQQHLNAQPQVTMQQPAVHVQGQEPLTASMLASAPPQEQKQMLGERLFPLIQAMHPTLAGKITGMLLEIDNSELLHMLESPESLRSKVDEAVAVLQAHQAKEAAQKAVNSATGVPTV
structure (smiles),measurement,setting,value
Cc1ccc(N=C(S)c2ccc3ccccc3n2)c(C)c1,IC50,[1],> 66 µM (inactive)
same,EC50,[2],> 112 µM (not active)
same,EC50,[3],> 300 µM (not active)
same,EC50,[4],> 112 µM (not active)
same,IC50,[5],> 66 µM (inactive)
same,EC50,[6],> 300 µM (not active)
O=C(Cn1c(=O)oc2cc(S(=O)(=O)N3CCCCCC3)ccc21)NC1CCCCCCC1,IC50,[7],9.64 µM (active)
Nc1ccc2[nH]c(CCCO)nc2c1,AC50,[8],8.48 µM (active)
same,EC50,[3],4.35 µM (inconclusive)
same,IC50,Large T antigen,21.2 µM (active)
same,EC50,[6],36.7 µM (active)
Cc1c(Nc2nc3ccccc3nc2NS(=O)(=O)c2cccc(Cl)c2)c(=O)n(-c2ccccc2)n1C,IC50,Leucine aminopeptidase,21.3 µM (active)
COc1ccc(N2C(=O)NC(=O)/C(=C\c3ccccc3[N+](=O)[O-])C2=O)cc1,IC50,Genome polyprotein,32 µM (active)
O=C(OCC(=O)N1CCCC1)c1ccccc1OCc1ccccc1,IC50,Leucine aminopeptidase,4.38 µM (active)
CCc1ccc(N2C(=O)C(Cl)=C(N3CCOCC3)C2=O)cc1,IC50,Genome polyprotein,45.1 µM (active)
same,AC50,[9],6.99 µM (active)
same,EC50,Protein RecA,0.34 µM (active)
CN(C)c1ccc(C=C2C(=O)NC(=S)NC2=O)cc1[N+](=O)[O-],IC50,[1],> 66 µM (inactive)
same,IC50,Genome polyprotein,12.8 µM (active)
same,IC50,Large T antigen,73.7 µM (active)
same,IC50,[5],> 66 µM (inactive)
same,IC50,Leucine aminopeptidase,76.6 µM (active)
COc1cc(/C=C2\C(=N)N3N=C(S(C)(=O)=O)SC3=NC2=O)ccc1OS(=O)(=O)c1ccc(C)cc1,IC50,Large T antigen,64.6 µM (active)
same,IC50,[7],3.81 µM (active)
O=C(O)CCN1C(=O)CC(N2C(=O)/C(=C/c3ccc(Cl)cc3)SC2=S)C1=O (stereo not drawn),IC50,Leucine aminopeptidase,22.5 µM (active)
CCC(C)[C@H](N)c1cn([C@@H](Cc2cc3ccccc3[nH]2)C(=O)N2CCNCC2)nn1 (stereo partly drawn),AC50,[8],8.23 µM (active)
same,IC50,[10],> 20 µM (inactive)
COc1ccccc1NC(=O)CSc1sc2c(O)cc(=O)[nH]c2c1C#N,IC50,[7],6.42 µM (active)
CC[C@H](C)NC(=O)c1ccc(Cn2c(=S)[nH]c3c([nH]c4ccc(OC)cc43)c2=O)cc1,IC50,[7],4.67 µM (active)
same,IC50,[11],5.25 µM (active)
Cc1ccc(-c2[nH]nc3c2C(c2cccnc2)C(C#N)=C(N)O3)cc1 (stereo not drawn),AC50,[9],5.17 µM (active)
same,IC50,Leucine aminopeptidase,25.8 µM (active)
same,EC50,Protein RecA,1.3 µM (active)
